From US20260207626A1, “SYNTHETIC TRITERPENOIDS AND COMPOSITIONS THEREOF IN WEIGHT MANAGEMENT, SKELETAL MUSCLE FUNCTION, AND APPETITE SUPPRESSION” (The Board of Regents of the University of Texas System, priority 2022, published 2026)
“Also recorded” adds a separate entry of the source.

What was measured:
L6-GLUT4myc myotubes = assay: Sulforhodamine B (SRB) cell viability assay; format: cell-based, rat; conditions: 500 nM CDDO-EA, 24 hours
Procedure: Sulforhodamine B (SRB) cell viability assay: L6-GLUT4myc myoblasts (4000 cells/well) were seeded on a 96-well plate and differentiated into myotubes with differentiation medium for 7 days. Myotubes were then treated with doubling concentrations of CDDO-EA for 6 or 24 h. After treatment, myotubes were fixed in 10% cold trichloroacetic acid (TCA) (Sigma Aldrich), for 1 h in 4° C., followed by three washings with water. The plate was then dried, and the cells were dyed with 100 μL/well of 0.057% SRB (Sigma Aldrich) in 1% acetic acid for 30 min in room temperature. The plate was washed with 1% acetic acid five times, dried, and 200 μL/well of 10 mM unbuffered tris-base solution were added to dissolve the bound SRB. The plate was shaken for 1 h and then read on SpectraMax at 560 nm. Results were normalized to values for non-treated cells.

NF-κB = NF-κB luciferase reporter assay in L6-GLUT4myc myotubes; format: cell-based, rat; conditions: 500 nM CDDO-EA 1 hr then 100 ng/ml LPS 6 hours
Procedure: To determine the effects of CDDO-EA on LPS-induced NF-κB transcriptional activity in L6-GLUT4myc myotubes, a luciferase reporter under the control of a promoter containing NF-κB transcription binding sites was used.
Luciferase assay: L6-GLUT4myc myoblasts were transfected with 2 μg of phosphorylated NF-κB-MetLuc2-Reporter plasmid as described previously. After transfection, cells were plated onto a 24-well dish (1.5×10^5 cells/well) and pre-treated with CDDO-EA for 1 h. Myotubes were then stimulated with LPS 100 ng/ml (E. coli 0111: B4, Sigma Aldrich) for 6 h, and luciferase activity was measured using the Ready-To-Glow™ NF-κB Secreted Luciferase Reporter System as described.

TNF-α [1] = assay: LPS-induced TNF-α ELISA in RAW 264.7 macrophages; format: cell-based, mouse; conditions: RAW264.7, 500 nM CDDO-EA 1 hour then 100 ng/ml LPS 6 hours
Procedure: Cytokine detection: RAW 264.7 cells were grown on 24-well dishes at 1×10^6 cells/ml, 0.5 ml/well. Cells were pre-treated with CDDO-EA 500 nM for 1 h. After 1 h, cells were treated with 100 ng/ml of LPS16,18 (E. coli O111: B4, Sigma Aldrich) for 6 h, and supernatants were collected and stored at −80° C. until analysis. TNF-α from the culture media of cells was measured and quantified using a Mouse TNF (Mono/Mono) ELISA Set (BD Bioscience) according to the manufacturer's instructions.

MCP-1 [2] = assay: LPS-induced MCP-1 ELISA in RAW264.7 macrophages (CDDO-EA batches); format: cell-based, mouse; conditions: RAW264.7, 500 nM 1 hour then 100 ng/ml LPS 6 hr
Procedure: Macrophages were pre-treated with 500 nM CDDO-EA #1 or 500 nM CDDO-EA #2, for 1 hour. The microphages were then stimulated with 100 ng/ml of lipopolysaccharide (LPS) for 6 hr. Supernatants were collected from each culture. An enzyme linked immunoassay (ELISA) was performed to detect levels of the pro-inflammatory protein, monocyte chemotactic protein-1 (MCP-1). The macrophages were also treated with LPS alone or with CDDO-EA alone. A control (no treatment) group was also included in the study.
The second batch of CDDO-EA was tested for its biological property of anti-inflammatory activity. As with the first batch of CDDO-EA, this was tested by using the mouse macrophage cell line RAW264.7. RAW264.7 macrophages were pre-treated with 500 nM CDDO-EA for 1 hour then stimulated with 100 ng/ml of lipopolysaccharide (LPS) for 6 hr. Supernatants were collected, and an enzyme linked immunoassay (ELISA) was performed to detect the pro-inflammatory protein, monocyte chemotactic protein-1 (MCP-1). The macrophages were also treated with LPS alone or with CDDO-EA alone. A control (no treatment) group was also included in the study. […] This suppression of MCP-1 production by the second batch CDDO-EA is similar to that observed for the first batch of CDDO-EA. (See FIG. 21).

[3] = Food intake in mice fed HFD with or without CDDO-EA, LFD or HFD pair-fed; format: in vivo, C57BL/6J mice; conditions: HFD + CDDO-EA (0.04%) vs ad libitum HFD
From the text: C57BL/6J mice were fed a HFD with or without incorporation of CDDO-EA (diet containing 0.04% CDDO-EA) or LFD or HFD pair-fed for 6 weeks (n=5). Food intake data points in week 1 are not recorded when mice were in the Prometheion. Data are represented as mean±SEM (Two-way Repeated Measures ANOVA). *p<0.05; **p<0.01 vs. HFD pair-fed; ? p<0.01 vs. HFD+CDDO-EA; ##p<0.01 vs. LFD ad lib.
C57BL/6J mice (6-8 weeks old, male, strain #000664, The Jackson Laboratory) were divided into four (4) groups (i)-(iv)): (i) ad libitum Low fat caloric content (LFD-10% of total calories from fat caloric content, #TD.08806, Envigo), (ii) ad libitum HFD (60% of total calories from fat caloric content, #TD.06414, Envigo), (iii) HFD+CDDO-EA (diet containing 0.04% CDDO-EA), and (iv) HFD pair-fed to food intake of mice fed HFD+CDDO-EA. The study was for 6 weeks (42 days) (performed at Vanderbilt Metabolic Mouse Phenotyping Center (VMMPC)). Mice were singly housed in a Promethion Metabolic Analyzer and were monitored continuously for 7 days to assess feeding and EE.

TNF-α [4] = assay: RT-PCR of PA-induced TNF-α gene expression in L6-GLUT4myc myotubes; format: cell-based, rat; conditions: CDDO-EA 500 nM 1 h then PA 400 μM 6 h
Procedure: (§1) L6-GLUT4myc myotubes were pretreated with CDDO-EA (500 nM, 1 h) and treated PA (400 μM, 6 h). TNF-α and MCP-1 gene expression were measured by RT-PCR. Data are represented as +SEM *P<0.05 vs. control, ^#P<0.05 vs. control. * P<0.05 vs. LPS, $P<0.05 vs. PA. (One-Way ANOVA).

MCP-1 [5] = assay: RT-PCR of PA-induced MCP-1 gene expression in L6-GLUT4myc myotubes; format: cell-based, rat; conditions: CDDO-EA 500 nM 1 h then PA 400 μM 6 h
Procedure: as §1

SMILES: CCNC(=O)[C@]12CCC(C)(C)C[C@H]1C1C(=O)C=C3[C@@]4(C)C=C(C#N)C(=O)C(C)(C)[C@@H]4CC[C@@]3(C)[C@]1(C)CC2 (stereo partly drawn) [CDDO-EA, (4aS,6aR,6bS,8aR,12aS,14bS)-11-cyano-N-ethyl-2,2,6a,6b,9,9,12a-heptamethyl-10,14-dioxo-1,3,4,5,6,6a,6b, 7,8,8a,9,10,12a, 14,14a, 14b-hexadecahydropicene-4a (2H)-carboxamide]
- cell viability (L6-GLUT4myc myotubes): 62%
- LPS-induced NF-κB transcriptional (luciferase) activity (NF-κB): prevented the promoter activity of NF-κB; also recorded: significantly inhibited the LPS-induced NF-κB activity; also recorded: blocks NF-κB transcriptional activity
- LPS-induced TNF-α production (TNF-α [1]): substantially blocked; also recorded: inhibits LPS-induced cytokines secretion in macrophages
- LPS-induced production of MCP-1 (MCP-1 [2]): significantly suppresses the LPS-induced production
- food intake [3]: prevented an increase in food intake; also recorded: decreases food intake
- PA-induced TNF-α gene expression (TNF-α [4]): inhibits PA-induced NF-κB activation and MCP-1 and TNF-α gene expression; also recorded: blocks TNF-α and MCP-1 gene expression
- PA-induced MCP-1 gene expression (MCP-1 [5]): inhibits PA-induced NF-κB activation and MCP-1 and TNF-α gene expression; also recorded: blocks TNF-α and MCP-1 gene expression
